{"source": "patent US6399654B1", "about": "“Biflavanoids and derivatives thereof as antiviral agents” (priority 1995, dated 2002)", "key": {"2.2.15 cells": {"tested_on": "2.2.15 cells", "assay": "HBV cytotoxicity assay, neutral red dye uptake in 2.2.15 cells", "format": "cell-based", "conditions": "Homo sapiens, read-out: IC50 (toxicity, neutral red dye uptake)", "procedure": "The toxicity of the test compounds in cultures of 2.2.15 cells, grown to confluence in 96-well flat-bottomed tissue culture plates and treated with compounds as described above, were assayed at four concentrations each in triplicate cultures, in 3 to 10-fold steps. Untreated control cultures were maintained on each plate. On each plate, wells containing no cells were used to correct for light scattering.\nStock solutions of text drugs were prepared in DMSO."}, "HSV-1": {"tested_on": "HSV-1", "assay": "HSV-1 CPE inhibition in HFF cells", "conditions": "for HSV-1 SI (CC50/EC50): HFF Cells"}, "[1]": {"tested_on": "Influenza A (A/NWS/33 (H1N1))", "assay": "Influenza A virus infection in mice", "format": "in vivo, BALB/c mice", "procedure": "Animals: Female 13-15 g specific pathogen-free BALB/c mice were obtained form Simonsen Laboratories (Gilroy, Calif.). They were quarantined 24 h prior to use, and maintained on Wayne Lab Blox and tap water. After being infected, their drinking water contained 0.006% oxytetracycline (Pfizer, New York, N.Y.) to control possible secondary bacterial infections.\nVirus: A/NWS/33 (H1N1) was obtained from K. W. Cochran, Univ. of Michigan (Ann Arbor, Mich.). A virus pool was prepared in MDCK cells; this was titrated in mice, ampuled, and stored at −80° C. until used.\nCompounds: Robustaflavone was stored at room temperature until used. Ribavirin, used as a positive control, was obtained from ICN Pharmaceuticals (Costa Mesa, Calif.). Vehicles considered included DMSO (Sigma Chemical Co., St. Louis, Mo.), DMF (Sigma), PEG M. W. 200 (Aldrich Chemical Co. Milwaukee, Wis.), 0.4% CMC (Sigma) and 1-methyl-2-pyrrolidinone (MPD, Aldrich).\nArterial Oxygen Saturation (SaO2) Determinations: SaO2 was determined using the Ohmeda Blox 3740 pulse oximeter (Ohmeda, Louisville, Ohio)). The ear probe attachment was used, the probe placed on the thigh of the animal, with the slow instrument mode selected. Readings were made after a 30 second stabilization time on each animal. Use of this device for measuring effects of influenza virus on arterial oxygen saturation have been described.^72\nLung Virus Determinations: Each mouse lung was homogenized and varying dilutions assayed in triplicate for infectious virus in MDCK cells as described previously.^73\n4. Effect of robustaflavone in CMC or in DMSO on influenza virus infection in mice. In the study with CMC, robustaflavone was used in dosages of 200 and 100 mg/kg/day; using DMSO vehicle, the dosages were 75 and 37.5 mg/kg/day, with the compound administered i.p. twice daily for 5 days beginning 4 h pre-virus exposure. The mice were used in each dose to monitor effects on SaO2 and death; from an additional group of similarly infected and treated mice, 3 animals were killed on days 3, 5, 7 and 9 to assay for lung score (0=normal, 4=maximal consolidation), weight, and virus titer. Three to four mice were used as toxicity controls, which were weighed prior to treatment and again 18 h after treatment termination, and deaths noted daily. […] Three sets of virus controls were used: Infected-untreated, infected-treated with CMC only, and infected-treated with DMSO only. Twenty animals were used in each of these control groups to monitor SaO2 and death, with 3 additional mice taken in parallel with treated animals to determine effects on lung consolidation and virus titer. Two sets of normal controls were used; one group of three mice was weighed and held in parallel with the toxicity controls. From the second group three mice were killed on days 3 and 9 for comparison of lung score and weight.\nStatistical Evaluation: Increase in survivor number was evaluated using chi square analysis with Yates' correction. Mean survival time increases, virus titer and SaO2 value differences were analyzed by t-test. Lung consolidation scores were evaluated by ranked sum analysis."}, "[2]": {"tested_on": "Respiratory Syncytial Virus", "assay": "microbe, parasite or virus in culture", "format": "cell-based", "conditions": "human respiratory syncytial virus, MA104; read-out: CPE Inhibition EC50"}, "Measles Virus": {"tested_on": "Measles Virus", "assay": "Measles virus neutral red dye uptake in BSC-1 cells", "format": "cell-based", "conditions": "Measles morbillivirus, BSC-1"}, "[3]": {"assay": "Cytotoxicity by neutral red dye uptake, BSC-1 cells", "conditions": "African green monkey"}, "[4]": {"assay": "Cytotoxicity by neutral red dye uptake, MA-104 cells", "conditions": "African green monkey, Neutral Red IC50 (cytotoxic)"}, "[5]": {"tested_on": "Influenza A (H3N2) Beijing/32/92", "assay": "microbe, parasite or virus in culture", "format": "cell-based, influenza A virus", "conditions": "Influenza A virus, MDCK; Influenza A (H3N2) Beijing/32/92; read-out: CPE Inhibition EC50"}, "HSV-2": {"tested_on": "HSV-2", "assay": "HSV-2 CPE inhibition in HFF cells", "conditions": "for HSV-2 SI (CC50/EC50): HFF Cells"}, "in vitro [6]": {"assay": "in vitro", "conditions": "African green monkey"}, "[7]": {"tested_on": "Madin Darby canine kidney (MDCK) cells", "conditions": "Influenza A (H3N2) test"}, "Adenovirus Type 5": {"tested_on": "Adenovirus Type 5", "assay": "Adenovirus type 5 neutral red dye uptake in A549 cells", "format": "cell-based", "conditions": "Human mastadenovirus C, A549; Adenovirus Type 5; read-out: Neutral Red EC50"}, "in vitro [8]": {"assay": "in vitro", "conditions": "dog, Neutral Red IC50 (cytotoxic)"}, "[9]": {"conditions": "robustaflavone in 0.4% CMC, 200 mg/kg/day i.p. bid × 5"}, "[10]": {"conditions": "robustaflavone in 0.4% CMC, 1005 mg/kg/day (so in the source) i.p. bid × 5"}, "[11]": {"conditions": "robustaflavone in DMSO, 37.5 mg/kg/day i.p. bid × 5"}, "[12]": {"conditions": "robustaflavone in DMSO, 75 mg/kg/day i.p. bid × 5"}, "[13]": {"conditions": "range-finding, CMC vehicle, 200 mg/kg/day i.p. twice daily for 5 days"}, "[14]": {"conditions": "range-finding, DMSO, 75 mg/kg/day, 0.05 mL injection volume"}, "[15]": {"conditions": "range-finding, DMSO, 250 mg/kg/day i.p. twice daily for 5 days, 0.1 mL"}}, "note": "Read-outs that look alike come from different tables or passages of the source. Marks after values point to notes of the source that are not given here.", "data": [{"smiles": "O=c1cc(-c2ccc(O)c(-c3c(O)cc4oc(-c5ccc(O)cc5)cc(=O)c4c3O)c2)oc2cc(O)cc(O)c12", "note": "[Robustaflavone (3), robustaflavone]", "values": [{"measurement": "IC50", "setting": "2.2.15 cells", "value": 337, "unit": "µM"}, {"measurement": "HSV-1 SI (CC50/EC50)", "setting": "HSV-1; listed as Robustaflavone(3)", "value": ">11.6"}, {"measurement": "HSV-1 SI (CC50/EC50)", "setting": "HSV-1; listed as robustaflavone (3)", "value": "> 11.6"}, {"measurement": "EC50", "setting": "HSV-1; Human alphaherpesvirus 1, HFF, read-out: HSV-1 CPE Inhibition EC50", "value": 8.6, "unit": "µg/mL"}, {"measurement": "Infected, Treated MST", "setting": "[1]; [9]", "value": 11.1, "unit": "days"}, {"measurement": "Infected, Treated Mean SaO2", "setting": "[1]; [9]", "value": 84.6, "unit": "%"}, {"measurement": "Infected, Treated Surv/Total", "setting": "[1]; [9]", "value": "0/9"}, {"measurement": "Infected, Treated MST", "setting": "[1]; [10]", "value": 9.8, "unit": "days"}, {"measurement": "Infected, Treated Mean SaO2", "setting": "[1]; [10]", "value": "85.1** %"}, {"measurement": "Infected, Treated Surv/Total", "setting": "[1]; [10]", "value": "0/10"}, {"measurement": "Infected, Treated MST", "setting": "[1]; [11]", "value": 8.0, "unit": "days"}, {"measurement": "Infected, Treated Mean SaO2", "setting": "[1]; [11]", "value": 73.8, "unit": "%"}, {"measurement": "Infected, Treated Surv/Total", "setting": "[1]; [11]", "value": "0/10"}, {"measurement": "Infected, Treated MST (mean survival time)", "setting": "[1]; [12]", "value": 3.2, "unit": "days"}, {"measurement": "Infected, Treated Mean SaO2 (mean of days 3-10)", "setting": "[1]; [12]", "value": 70.6, "unit": "%"}, {"measurement": "Infected, Treated Surv/Total", "setting": "[1]; robustaflavone in DMSO, 75 mg/kg/day i.p. bid × 5 beg −4 h pre-virus", "value": "0/9"}, {"measurement": "EC50", "setting": "[2]", "value": "> 100", "unit": "µg/mL"}, {"measurement": "EC50", "setting": "Measles Virus", "value": "< 30", "unit": "µg/mL"}, {"measurement": "IC50", "setting": "[3]", "value": "~100", "unit": "µg/mL"}, {"measurement": "IC50", "setting": "[4]; Parainfluenza Type 3 Virus test", "value": 79, "unit": "µg/mL"}, {"measurement": "IC50", "setting": "[4]; Respiratory Syncytial Virus test", "value": "~100", "unit": "µg/mL"}, {"measurement": "EC50", "setting": "[5]", "value": 1.9, "unit": "µg/mL"}, {"measurement": "HSV-2 SI (CC50/EC50)", "setting": "HSV-2; listed as Robustaflavone(3)", "value": ">11.8"}, {"measurement": "HSV-2 SI (CC50/EC50)", "setting": "HSV-2; listed as robustaflavone (3)", "value": "> 11.8"}, {"measurement": "EC50", "setting": "HSV-2; Human alphaherpesvirus 2, HFF, read-out: HSV-2 CPE Inhibition EC50", "value": 8.5, "unit": "µg/mL"}, {"measurement": "IC50", "setting": "in vitro [6]", "value": "< 14", "unit": "µg/mL"}, {"measurement": "tolerability in the antiviral experiment (in words)", "setting": "CMC, 200 and 100 mg/kg/day", "value": "well tolerated"}, {"measurement": "toxicity control mice killed", "setting": "DMSO, 37.5 mg/kg/day", "value": "2 of 3"}, {"measurement": "toxicity in the antiviral experiment (in words)", "setting": "DMSO, 75 mg/kg/day", "value": "lethally toxic"}, {"measurement": "toxicity in the antiviral experiment (in words)", "setting": "DMSO, 75 and 37.5 mg/kg/day", "value": "toxic to the mice"}, {"measurement": "Toxicity Controls Surv/Total", "setting": "female, BALB/c, mouse, in vivo, ip, 200 mg/kg/day", "value": "3/3"}, {"measurement": "Toxicity Controls Mean Weight Change", "setting": "mouse, in vivo, ip, 200 mg/kg/day", "value": 1.5, "unit": "g"}, {"measurement": "Toxicity Controls Mean Weight Change", "setting": "mouse, in vivo, ip, 1005 mg/kg/day", "value": 1.9, "unit": "g"}, {"measurement": "tolerability (in words)", "setting": "[13]", "value": "reasonably well tolerated"}, {"measurement": "weight lost in the 5-day treatment period", "setting": "[13]", "value": 0.1, "unit": "g"}, {"measurement": "survival (in words)", "setting": "[14]", "value": "all mice survived"}, {"measurement": "weight lost during the 5-day treatment period", "setting": "[14]", "value": 2, "unit": "g"}, {"measurement": "tolerability (in words)", "setting": "[15]", "value": "lethally toxic"}, {"measurement": "weight loss", "setting": "[15]", "value": 6, "unit": "g"}, {"measurement": "Toxicity Controls Surv/Total", "setting": "[10]", "value": "4/4"}, {"measurement": "Toxicity Controls Mean Weight Change", "setting": "[11]", "value": -0.8, "unit": "g"}, {"measurement": "Toxicity Controls Surv/Total", "setting": "[11]", "value": "1/3"}, {"measurement": "Toxicity Controls Mean Weight Change", "setting": "[12]", "value": -1.7, "unit": "g"}, {"measurement": "Toxicity Controls Surv/Total", "setting": "[12]", "value": "0/3"}, {"measurement": "CPE Inhibition IC50 (cytotoxic)", "setting": "[7]", "value": "˜32 ug/mL"}, {"measurement": "EC50", "setting": "Adenovirus Type 5", "value": "> 100", "unit": "µg/mL"}, {"measurement": "IC50", "setting": "in vitro [8]; Influenza A (H1N1) test", "value": "~32", "unit": "µg/mL"}, {"measurement": "IC50", "setting": "in vitro [8]; Influenza A (H3N2) test", "value": "~100", "unit": "µg/mL"}, {"measurement": "IC50", "setting": "in vitro [8]; Influenza B test", "value": 100, "unit": "µg/mL"}]}]}
